Laboratory results: US20110112032A1, “Regulation of Brain Natriuretic Peptide and Catecholamines for the Treatment of Cardiovascular Diseases” (priority 2005, published 2011)
“And” between values parts separate entries of the source, which are not always exact repeats. Identical values can stand only once. Like-named read-outs stand apart in the source and are kept apart here.

Assays:
[1] = test system: rat myocardial infarct model; format: in vivo
[2] = molecular target: norepinephrine transporter (Rattus norvegicus, UniProt Q63380); format: cell-based
Sequence of norepinephrine transporter (Q63380 1-617): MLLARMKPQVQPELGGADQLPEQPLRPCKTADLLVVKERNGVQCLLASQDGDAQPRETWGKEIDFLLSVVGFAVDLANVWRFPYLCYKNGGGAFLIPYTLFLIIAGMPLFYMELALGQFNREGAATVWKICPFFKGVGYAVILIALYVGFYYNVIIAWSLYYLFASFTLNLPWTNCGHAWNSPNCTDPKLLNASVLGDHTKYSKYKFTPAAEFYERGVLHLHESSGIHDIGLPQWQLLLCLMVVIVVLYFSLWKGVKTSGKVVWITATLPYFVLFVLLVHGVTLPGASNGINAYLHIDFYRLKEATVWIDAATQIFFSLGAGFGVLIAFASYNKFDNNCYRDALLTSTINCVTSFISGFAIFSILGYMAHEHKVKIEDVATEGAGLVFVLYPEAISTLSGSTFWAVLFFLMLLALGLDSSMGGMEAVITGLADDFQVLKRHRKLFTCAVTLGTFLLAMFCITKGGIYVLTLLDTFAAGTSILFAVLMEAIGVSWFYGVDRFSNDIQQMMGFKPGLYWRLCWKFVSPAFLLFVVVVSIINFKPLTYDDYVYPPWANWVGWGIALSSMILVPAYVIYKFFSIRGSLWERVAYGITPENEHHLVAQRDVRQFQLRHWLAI

[3] = animal group that received labetalol

[D-Pen^25]-enkephalin [DPDPE]
HR ([1]; rat, in vivo): 215 ± 1 bpm and 218 ± 1 bpm and 232 ± 1 bpm and 216 ± 1 bpm | Infarct Size ([1]; rat, in vivo): 6.6 ± 1.4 % of LV | Mean BP ([1]; rat, in vivo): 125 ± 1 mmHg and 116 ± 1 mmHg and 89 ± 2 mmHg and 96 ± 1 mmHg | infarct-size-limiting effect in rats pretreated with labetalol ([1]; rat, in vivo): nearly abolished | reduction of LV infarct size compared to control ([1]; rat, in vivo, iv): 53%

NC[C@H](O)c1ccc(O)c(O)c1 [norepinephrine]
inhibition of [3H] norepinephrine uptake [2]: 20% | reduction of [3H]norepinephrine uptake [2]: 20±5%

CNCCC(Oc1ccccc1OC)c1ccccc1 (stereo not shown) [nisoxetine]
reduction of [3H]norepinephrine uptake [2]: 36±4%

CC(CCc1ccccc1)NCC(O)c1ccc(O)c(C(N)=O)c1 (stereo not shown) [Labetalol, labetalol]
Infarct Size ([1]; N = 6, DPDPE 200 ng/kg iv 30 min before occlusion, labetalol 2 mg/kg iv): 16.2 ± 1.7 % of LV | change in heart rate [1, 3]: mild increase | change in mean blood pressure compared to the other groups [1, 3]: small reduction | HR ([1]; rat, in vivo): 213 ± 1 bpm and 223 ± 1 bpm and 244 ± 2 bpm and 235 ± 2 bpm | Mean BP ([1]; rat, in vivo): 125 ± 2 mmHg and 100 ± 2 mmHg and 78 ± 4 mmHg and 81 ± 4 mmHg
